Measurements reported in patent US20070275967A1, “Pyrazolinols” (BAYER CROPSCIENCE AKTIENGESELLSCHAFT, priority 2003, published 2007).

Tests used:
[1] = logP determination by HPLC on reversed-phase column (EEC Directive 79/831 Annex V.A8); type: physicochemical; details: acidic range (pH 2.3), marked a), 0.1% aqueous phosphoric acid/acetonitrile gradient, reversed-phase C 18, 43° C.; for chromatographic logP: reversed-phase C18 HPLC column
Procedure: The logP values given in the table were determined in accordance with EEC Directive 79/831 Annex V.A8 by HPLC (High Performance Liquid Chromatography) on a reversed-phase column (C 18). Temperature: 43° C. (a) Mobile phases for the determination in the acidic range (pH 2.3): 0.1% aqueous phosphoric acid, acetonitrile; linear gradient from 10% acetonitrile to 90% acetonitrile—the corresponding measurement results in table 1 are marked a). (b) Mobile phases for the determination in the neutral range (pH 7.5): 0.01-molar aqueous phosphate buffer solution, acetonitrile; linear gradient from 10% acetonitrile to 90% acetonitrile—the corresponding measurement results in table 1 are marked b). Calibration was carried out using unbranched alkan-2-ones (having 3 to 16 carbon atoms) with known logP values (determination of the logP values by the retention times using linear interpolation between two successive alkanones).

[2] = test system: caterpillars of the armyworm (Spodoptera frugiperda); assay: Spodoptera frugiperda test (spray treatment); type: in vivo; details: for pest or weed control at 500 g/ha / pest or weed control at 100 g/ha: Spodoptera frugiperda, 168 h, after 7 d, spray treatment, read-out: Kill rate in % after 7 d; for pest or weed control at 500 g/ha: active compound concentration 500 g/ha; for activity (kill of caterpillars): corn leaf disks sprayed, populated with Spodoptera frugiperda caterpillars, result in words; for pest or weed control at 100 g/ha: active compound concentration 100 g/ha
Procedure: Spodoptera Frugiperda Test (Spray Treatment) [table] To produce a suitable preparation of active compound, 1 part by weight of active compound is mixed with, the stated amounts of solvents and emulsifier, and the concentrate is diluted with emulsifier-containing water to the desired concentration. Disks of corn leaves (Zea mays) are sprayed with a preparation of active compound of the desired concentration and, after they have dried, populated with caterpillars of the armyworm (Spodoptera frugiperda). After the desired period of time, the activity in % is determined. 100% means that all caterpillars have been killed; 0% means that none of the caterpillars have been killed.

[3] = test system: larvae of the mustard beetle (Phaedon cochleariae); assay: Phaedon test (spray treatment); type: in vivo; details: for activity (kill of beetle larvae): Chinese cabbage disks sprayed, populated with Phaedon cochleariae larvae, result in words; for pest or weed control at 500 g/ha / pest or weed control at 100 g/ha: Phaedon cochleariae, 168 h, after 7 d, spray treatment, read-out: Kill rate in % after 7 d; for pest or weed control at 500 g/ha: active compound concentration 500 g/ha; for pest or weed control at 100 g/ha: active compound concentration 100 g/ha
Procedure: Phaedon Test (Spray Treatment) [table] To produce a suitable preparation of active compound, 1 part by weight of active compound is mixed with the stated amounts of solvents and emulsifier, and the concentrate is diluted with emulsifier-containing water to the desired concentration. Disks of Chinese cabbage (Brassica pekinensis) are sprayed with a preparation of active compound of the desired concentration and, once they have dried, populated with larvae of the mustard beetle (Phaedon cochleariae). After the desired period of time, the activity in % is determined. 100% means that all beetle larvae have been killed; 0% means that none of the beetle larvae have been killed.

## Cc1ccccc1NC(=S)N1N=C(C(C)C)CC1(O)C(F)(F)F (stereo not shown) [Example 32]
[1]
  chromatographic logP: 4.1
[2]
  pest or weed control at 500 g/ha: 100%
  activity (kill of caterpillars): good activity
[3]
  activity (kill of beetle larvae): good activity
  pest or weed control at 500 g/ha: 100%

## CCC1=NN(C(=S)Nc2ccc(Cl)cc2)C(O)(C(F)(F)F)C1 (stereo not shown) [Example 53]
[1]
  chromatographic logP: 4.07
[3]
  activity (kill of beetle larvae): good activity
  pest or weed control at 500 g/ha: 100%

## CC(C)(C)C1=NN(C(=S)Nc2ccccc2)C(O)(C(F)(F)F)C1 (stereo not shown) [Example 63]
[1]
  chromatographic logP: 4.26
[2]
  pest or weed control at 100 g/ha: 100%
  activity (kill of caterpillars): good activity
[3]
  activity (kill of beetle larvae): good activity
  pest or weed control at 100 g/ha: 100%

## CC(C)(C)C1=NN(C(=S)Nc2ccc(OC(F)(F)F)cc2)C(O)(C(F)(F)F)C1 (stereo not shown) [Example 64]
[1]
  chromatographic logP: 4.94
[2]
  pest or weed control at 100 g/ha: 100%
  activity (kill of caterpillars): good activity
[3]
  activity (kill of beetle larvae): good activity
  pest or weed control at 100 g/ha: 100%

## CC(C)(C)C1=NN(C(=S)NC2CCCCC2)C(O)(C(F)(F)F)C1 (stereo not shown) [Example 73]
[2]
  pest or weed control at 100 g/ha: 100%
  activity (kill of caterpillars): good activity
[3]
  activity (kill of beetle larvae): good activity
  pest or weed control at 100 g/ha: 100%

## OC1(C(F)(F)F)CC(c2ccccc2)=NN1C(=S)Nc1ccc(Cl)cc1 (stereo not shown) [Example 83]
[1]
  chromatographic logP: 4.58
[2]
  pest or weed control at 500 g/ha: 100%
  activity (kill of caterpillars): good activity

## CC1=NN(C(=O)Nc2ccc(F)cc2)C(O)(C(F)(F)F)C1 (stereo not shown) [Example 117]
[1]
  logP: logP = 2.70^a)

## CC1=NN(C(=S)Nc2ccc(C)cc2)C(O)(C(F)(F)F)C1 (stereo not shown) [Example 119]
[1]
  logP: logP = 3.49^a)

## CC1=NN(C(=S)Nc2ccccc2F)C(O)(C(F)(F)F)C1 (stereo not shown) [Example 120]
[1]
  logP: logP = 3.05^a)

## CC1=NN(C(=S)Nc2ccc(C(C)(C)C)cc2)C(O)(C(F)(F)F)C1 (stereo not shown) [Example 121]
[1]
  logP: logP = 4.45^a)

## CC1=NN(C(=S)NCc2ccccc2F)C(O)(C(F)(F)F)C1 (stereo not shown) [Example 124]
[1]
  logP: logP = 3.53^a)

## CC1=NN(C(=S)NCc2ccccc2Cl)C(O)(C(F)(F)F)C1 (stereo not shown) [Example 125]
[1]
  logP: logP = 3.87^a)

## CC(C)(C)C1=NN(C(=S)Nc2ccc(Cl)cc2)C(O)(C(Cl)(Cl)Cl)C1 (stereo not shown) [Example 129]
[1]
  logP: logP = 4.03^a)

## CC(C)(C)C1=NN(C(=S)NCc2ccc(Cl)cc2)C(O)(C(Cl)(Cl)Cl)C1 (stereo not shown) [Example 130]
[1]
  logP: logP = 2.72^a)

## CC(C)(C)C1=NN(C(=S)NCc2ccc(Cl)cc2)C(O)(C(F)(F)C(F)(F)F)C1 (stereo not shown) [Example 132]
[1]
  logP: logP = 5.32^a)

## CC(C)(C)C1=NN(C(=O)Nc2ccc(Cl)cc2)C(O)(C(F)(F)C(F)(F)F)C1 (stereo not shown) [Example 134]
[1]
  logP: logP = 4.77^a)

## CC(C)(C)C1=NN(C(=S)Nc2ccc(Cl)cc2)C(O)(C(F)(F)C(F)(F)F)C1 (stereo not shown) [Example 135]
[1]
  logP: logP = 5.19^a)

## CC(C)(C)C1=NN(C(=S)Nc2ccc(Cl)cc2)C(O)(C(F)(F)C(F)(F)C(F)(F)F)C1 (stereo not shown) [Example 138]
[1]
  logP: logP = 5.57^a)

## CC(C)(C)C1=NN(C(=O)Nc2ccc(Cl)cc2)C(O)(C(F)(F)C(F)(F)C(F)(F)F)C1 (stereo not shown) [Example 140]
[1]
  logP: logP = 5.20^a)

## CC(C)(C)C1=NN(C(=S)Nc2ccc(Cl)cc2)C(O)(C(F)F)C1 (stereo not shown) [Example 142]
[1]
  logP: logP = 4.50^a)

## CC(C)(C)C1=NN(C(=O)Nc2ccc(Cl)cc2)C(O)(C(F)F)C1 (stereo not shown) [Example 144]
[1]
  logP: logP = 3.72^a)
